Results published in patent US9321756B2, “Azole compounds as PIM inhibitors” (priority 2011, dated 2016).
Read-outs that look alike come from different tables or passages of the source.

Tests used:
[1] = target: full length recombinant Pim-2 (Homo sapiens (Human), UniProt Q9P1W9); assay: Pim enzyme assay (HTRF, phosphorylation of biotinylated-BAD (S112) peptide), Pim-2; format: biochemical; conditions: read-out: Pim2_IC50
[2] = target: full length recombinant Pim-1 (Homo sapiens (Human), UniProt P11309); assay: Pim enzyme assay (HTRF, phosphorylation of biotinylated-BAD (S112) peptide), Pim-1; format: biochemical; conditions: read-out: Pim_1_IC50
[3] = target: full length recombinant Pim-3 (Homo sapiens (Human), UniProt Q86V86); assay: Pim enzyme assay (HTRF, phosphorylation of biotinylated-BAD (S112) peptide), Pim-3; format: biochemical; conditions: read-out: Pim3 IC50
How it was run: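 Full-length recombinant Pim-3 phosphorylated biotinylated BAD (S112) peptide in 60 mM Hepes pH 7.0, 0.05% BSA, 2 mM DTT for 1 h 30 min at 22 °C. After EDTA stop, HTRF was read with Eu anti-phospho-BAD and streptavidin-APC. IC50 came from 4-parameter logistic fit of percent-of-control values.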

[4] = test system: Pim-1 stably transfected U2OS human osteogenic sarcoma line; assay: Pim cell assay U2OS (phospho-BAD normalized against total BAD), Pim-1 transfected; format: cell-based; conditions: Homo sapiens, U2OS
[5] = test system: Pim-2 stably transfected U2OS human osteogenic sarcoma line; assay: Pim cell assay U2OS (phospho-BAD normalized against total BAD), Pim-2 transfected; format: cell-based; conditions: Homo sapiens, read-out: U2OS Pim2_Cell_IC50
Protocol: The cell lines used in the assay were generated by the stable transfection of either Pim-1 or Pim-2 into the U2OS human osteogenic sarcoma line. The assay for determination of the Pim activity in the engineered U2OS cell lines measures levels of phospho-BAD normalized against total BAD protein levels. It was conducted as follows:
The adherent cells were dissociated from the flasks using non-enzymatic cell dissociation solution (Sigma #C5914). […] The cells were then incubated overnight at 37° C., 5% CO2.
In addition to the 10-point dosing curve of the test compound, DMSO alone was run as the high control.
This dilution in DMSO was then diluted again into cell growth medium. Aliquots (12 μL) of the compound diluted in growth medium were then transferred to the appropriate wells of the 96-well plates containing cells to a final DMSO concentration of 0.3%. The cell plates were then incubated with compound for 29 min at 37° C., 5% CO2.
The cell plates containing lysis buffer were then immediately stored at −70° C.
These prepared lysates were then assayed for phospho and total BAD according to the manufacturer's protocols (Meso Scale Diagnostics, Cat#K15103C-3 & #K15103D-3). The plates were read on the MSD Sector Imager 6000, and results were calculated according to the assay protocols ((% Phosphoprotein=((2×Phospho signal)/(Phospho signal+Total signal))×100)).

[6] = read-out: U2OS Pim1_Cell_IC50, U2OS cells, Pim-1 transfected

full length recombinant Pim-2, sequence (Q9P1W9 whole entry): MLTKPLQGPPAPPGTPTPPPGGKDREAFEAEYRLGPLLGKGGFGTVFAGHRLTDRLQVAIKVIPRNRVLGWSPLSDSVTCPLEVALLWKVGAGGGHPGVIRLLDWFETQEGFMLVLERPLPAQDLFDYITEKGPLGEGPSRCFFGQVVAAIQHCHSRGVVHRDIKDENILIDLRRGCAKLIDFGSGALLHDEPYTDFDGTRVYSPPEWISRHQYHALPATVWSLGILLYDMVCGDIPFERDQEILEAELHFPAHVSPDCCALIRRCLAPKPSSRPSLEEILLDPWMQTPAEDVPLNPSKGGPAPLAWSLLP
full length recombinant Pim-1, sequence (P11309 whole entry): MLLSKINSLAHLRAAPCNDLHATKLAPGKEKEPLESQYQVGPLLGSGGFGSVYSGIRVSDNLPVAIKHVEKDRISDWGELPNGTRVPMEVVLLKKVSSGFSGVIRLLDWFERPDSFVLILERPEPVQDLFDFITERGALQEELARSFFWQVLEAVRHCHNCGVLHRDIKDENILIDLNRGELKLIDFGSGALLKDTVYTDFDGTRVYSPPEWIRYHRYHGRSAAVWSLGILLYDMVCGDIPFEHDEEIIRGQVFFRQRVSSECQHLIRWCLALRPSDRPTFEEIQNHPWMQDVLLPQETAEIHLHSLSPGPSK

Structure (SMILES)	IC50 ([1]; Pim-2 enzyme assay) [nM]	IC50 ([2]; Pim-1 enzyme assay) [nM]	IC50 ([3]; Pim-3 enzyme assay) [nM]	IC50 [4, 6] [nM]	IC50 ([5]; U2OS cells, Pim-2 transfected) [nM]	IC50 ([4]; read-out: U2OS Pim1_Cell_IC50) [nM]	IC50 [1] [nM]	IC50 [2] [nM]	IC50 [3] [nM]	IC50 ([5]; U2OS) [nM]
CC1CCCCN1c1cncc(-c2c[nH]c3ccc(-c4nnc(N)o4)cc23)n1 (stereo not shown) [Example 1, 5-(3-(6-(2-methylpiperidin-1-yl)pyrazin-2-yl)-1H-indol-5-yl)-1,3,4-oxadiazol-2-amine]	2.06	0.714	1.06	11.9	435					
CN1CCN(c2cccc(-c3c[nH]c4ccc(-c5nnc(N)s5)cc34)n2)CC1 [Example 13, 5-(3-(6-(4-methylpiperazin-1-yl)pyridin-2-yl)-1H-indol-5-yl)-1,3,4-thiadiazol-2-amine]				198			10.9	2.02	0.625	3010
Nc1nnc(-c2ccc3[nH]cc(-c4cncc(NC5CCCC5)n4)c3c2)s1 [Example 17, 5-(3-(6-(cyclopentylamino)pyrazin-2-yl)-1H-indol-5-yl)-1,3,4-thiadiazol-2-amine 2,2,2-trifluoroacetate]						56.6	5.92	1.5	0.763	1220
CN1CCN(c2cncc(-c3c[nH]c4ccc(-c5nnc(N)s5)cc34)n2)CC1=O [Example 18, 4-(6-(5-(5-amino-1,3,4-thiadiazol-2-yl)-1H-indol-3-yl)pyrazin-2-yl)-1-methylpiperazin-2-one]	89.2	15.8	7.41		> 31600	> 31600				
Nc1nnc(-c2ccc3[nH]cc(-c4cccc(-c5ccc(Cl)cc5)n4)c3c2)s1 [Example 31, 5-(3-(6-(4-chlorophenyl)pyridin-2-yl)-1H-indol-5-yl)-1,3,4-thiadiazol-2-amine]				1090	28300		75.5	37.4	13.6	

Second part, led by results:

IC50 ([1]; Pim-2 enzyme assay) [nM]	IC50 ([2]; Pim-1 enzyme assay) [nM]	IC50 ([3]; Pim-3 enzyme assay) [nM]	Structure (SMILES)	IC50 [4, 6] [nM]	IC50 ([5]; U2OS cells, Pim-2 transfected) [nM]	IC50 ([4]; read-out: U2OS Pim1_Cell_IC50) [nM]	IC50 [1] [nM]	IC50 [2] [nM]	IC50 [3] [nM]	IC50 ([5]; U2OS) [nM]
2.19	5.95	0.974	CC1CCCCN1c1ccnc(-c2c[nH]c3ccc(-c4nnc(N)o4)cc23)n1 (stereo not shown) [Example 3, 5-(3-(4-(2-methylpiperidin-1-yl)pyrimidin-2-yl)-1H-indol-5-yl)-1,3,4-oxadiazol-2-amine]		235	54.6				
2	1.01	0.586	Nc1nnc(-c2ccc3[nH]cc(-c4cncc(NC5CCCC5)n4)c3c2)o1 [Example 4, 5-(3-(6-(cyclopentylamino)pyrazin-2-yl)-1H-indol-5-yl)-1,3,4-oxadiazol-2-amine]		342	27				
20.8	5.91	5.74	Nc1nnc(-c2ccc3[nH]cc(-c4cccc(N5CCOCC5)n4)c3c2)o1 [Example 6, 5-(3-(6-morpholinopyridin-2-yl)-1H-indol-5-yl)-1,3,4-oxadiazol-2-amine]	61.9	2110					
8.61	19.7	7.69	Nc1nnc(-c2ccc3[nH]cc(-c4nccc(N5CCOCC5)n4)c3c2)s1 [Example 11, 5-(3-(4-morpholinopyrimidin-2-yl)-1H-indol-5-yl)-1,3,4-thiadiazol-2-amine]		2200	911				
27.8	19.7	7.8	CCOc1cncc(-c2c[nH]c3ccc(-c4nnc(N)s4)cc23)n1 [Example 19, 5-(3-(6-ethoxypyrazin-2-yl)-1H-indol-5-yl)-1,3,4-thiadiazol-2-amine]	205	2750					
157	40.7	27	c1cc(-c2c[nH]c3ccc(-c4nncs4)cc23)nc(N2CCOCC2)c1 [Example 28, 4-(6-(5-(1,3,4-thiadiazol-2-yl)-1H-indol-3-yl)pyridin-2-yl)morpholine]		> 31600	1070				
